# Reference: patent US20050256161A1, “Melanin concentrating hormone receptor antagonists” (priority 2003, published 2005)
# Assays:
# [1] = target: T1, human MCH 1 receptor (hMCH1R) (Homo sapiens, UniProt Q99705); assay: Ligand binding assay (125I native-MCH), hMCH; settings: hMCH1R expressed in HEK 293, membranes, 0.2 nM 125I native-MCH
# T1 construct: expressed in transfected cells; host or cells: HEK 293 (membrane preparation)
# Protocol: (§1) Human embryonic kidney cells (293 total) expressing either human, rat, or mouse MCH receptor were harvested from 150 mm culture dishes using PBS. Spinning at 1500 rpm for 2 minutes initially pelleted cells. The resulting pellet was then homogenized in 15 mL ice cold sucrose buffer (25 mM HEPES, 0.3 M sucrose, pH 7.4) with a motorized, glass fitted, Teflon® homogenizer. The homogenate was centrifuged at 48,000×g at 4° C. for 10 minutes, resuspended in 15 mL assay buffer (25 mM HEPES, 10 mM MgCl2, 0.2% BSA, 0.1 mg/mL STI, 0.1 mg/mL Pefabloc®, 1 μM Phosphoramidon, pH 7.4) with a Tissue-Tearor® (Biospec Products) and centrifuged again at 48,000×g for 10 minutes. The pellet was homogenized for a third time in 15 mL assay buffer using the Tissue-Tearor® and again centrifuged at 48,000×g for 10 minutes. The resulting pellet was resuspended in assay buffer at a wet weight concentration of 10-20 mg/mL.
# (§2) Binding assays were determined as described below using mouse, rat or human MCH 1 receptors (mMCH1R, rMCH1R, and hMCH1R, respectively) expressed in HEK 293; IC50 values were calculated.
# (§3) Binding assays were performed in 96-well U-bottom plates. Membranes (100 μg tissue) were incubated at 30° C. for 90 minutes in assay buffer with various peptides in the presence of 0.2 nM 125I native-MCH (Perkin-Elmer Life Sciences, Boston, Mass.) in 100 μL total volume. Non-specific binding was assessed in the presence of 1 μM cold native-MCH. The reaction was terminated by rapid filtration through Unfilter-96 GF/C glass fiber filter plates (FilterMate® 196 Harvester, Packard Instrument Co., Meriden, Conn.) pre-soaked in PBS/0.5% BSA, followed by three washes with 300 μL ice-cold water. Bound radioactivity was determined using a TopCount® microplate scintillation and luminescence counter (Packard Instrument Co., Meriden, Conn.). Nonlinear regression analyses of drug concentration curves were performed using GraphPad Prism® (GraphPad Software, Inc., San Diego, Calif.).
# [2] = target: T2, rat MCH 1 receptor (rMCH1R) (Rattus norvegicus, UniProt P97639); assay: Ligand binding assay (125I native-MCH), rMCH; settings: rMCH1R expressed in HEK 293, membranes, 0.2 nM 125I native-MCH
# T2 construct: expressed in transfected cells; host or cells: HEK 293 (membrane preparation)
# Protocol: as §1, §2, §3
# rat MCH1 receptor = target: T3, rat MCH1 receptor (Rattus norvegicus, UniProt P97639); assay: rMCH FLIPR calcium mobilization functional assay; format: cell-based; settings: CHOK1-Gqi cells
# T3 construct: expressed in transfected cells
# Protocol: Pharmacological analyses were conducted using either a HT-PS100 device (Axiom Biotechnologies, San Diego, Calif.), which provides high-resolution dose-response fluorometric measurements of [Ca^++]i mobilization, or using a FLIPR® device (Molecular Devices, Sunnyvale, Calif.).
# Materials: Pharmacological analysis was conducted using a FLIPR® device (Molecular Devices, Sunnyvale, Calif.). CHOK1-Gqi cells were stably transfected with the rat MCH1 receptor and maintained under G418 antibiotic pressure. FLIPR® assay buffer consisted of phenol red-free DMEM+2.5 mM probenecid. MCH peptide (Amgen, Inc.) was reconstituted in assay buffer and served as the positive agonist control for all experiments. Test compounds were prepared as 10 mM stocks in 100% DMSO and diluted to a top end working concentration of 10 μM in 96 well black, flat bottom, collagen-I coated plates (Becton Dickinson, Bedford, Mass.).
# Methods: CHOK1-Gqi cells stably expressing MCH1R were maintained in Dulbeco's modified Eagle's medium (GIBCO/Life Technologies, Rockville, Md.) supplemented with 2 mM glutamine and 10% dialyzed fetal bovine serum (HyClone, Logan, Utah) at 37° C., 5% CO2. Cells were harvested by 10′ treatment with Versene (GIBCO/Life Technologies) followed by trituration, washing twice with cold (4° C.) hybridoma medium (Serum/Protein free, with L-glutamine, sodium bicarbonate, MOPS buffer) (Sigma-Aldrich Corp, St. Louis, Mo.) and replated onto 96 well black, flat bottom, collagen-I coated plates to a density of 10,000 cells/well. The cells were then loaded with the fluorescent calcium indicator Fura-2 (Molecular Probes, Eugene, Oreg.) at 1.6 μM for 60′ at room temperature. The loaded cells were then washed twice with 90 μl/well of wash buffer (1×HBSS, 20 mM HEPES, 2.5 mM probenecid).
# Receptor-stimulated intracellular calcium responses were detected using FLIPR® by monitoring increases in the Fura-2 fluorescence response.
# Test compounds were screened for MCH1R activity in the FLIPR® for both agonist and antagonist action. Agonist mode challenges were conducted at a maximum gradient concentration of 1 μM. Antagonist activity was tested by 10 min pre-incubation of cells at a compound concentration of defined to be 300× the EC50 of MCH (typically 1 μM), with subsequent introduction of MCH at a concentration 5-fold of EC50 as determined in preliminary experiments.
# Schild experiments were conducted on the FLIPR® for selected compounds by co-administering antagonist compounds together with MCH peptide. Several fixed concentrations of antagonist compounds were prepared in 10-fold increments, and presented to the cells in a gradient of increasing MCH concentration. Values for compound pA2 were calculated by linear regression of MCH EC50s as a function of antagonist concentration.
# human MCH receptor = target: T4, human MCH receptor (Homo sapiens, UniProt Q99705); assay: hMCH FLIPR calcium mobilization functional assay; format: cell-based; settings: threshold 100 μM or less
# T4 construct: expressed in transfected cells
# T4 sequence (Q99705 whole entry): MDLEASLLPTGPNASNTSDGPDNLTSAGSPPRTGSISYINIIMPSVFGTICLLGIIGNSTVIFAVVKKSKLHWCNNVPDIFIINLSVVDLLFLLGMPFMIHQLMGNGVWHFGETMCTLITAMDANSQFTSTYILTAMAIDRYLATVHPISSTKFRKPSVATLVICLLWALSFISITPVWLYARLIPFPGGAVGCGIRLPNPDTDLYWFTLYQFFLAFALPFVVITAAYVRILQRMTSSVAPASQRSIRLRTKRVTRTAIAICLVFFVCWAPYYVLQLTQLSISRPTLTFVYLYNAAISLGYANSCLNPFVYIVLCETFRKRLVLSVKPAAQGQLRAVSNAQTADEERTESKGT
# T3 sequence (P97639 whole entry): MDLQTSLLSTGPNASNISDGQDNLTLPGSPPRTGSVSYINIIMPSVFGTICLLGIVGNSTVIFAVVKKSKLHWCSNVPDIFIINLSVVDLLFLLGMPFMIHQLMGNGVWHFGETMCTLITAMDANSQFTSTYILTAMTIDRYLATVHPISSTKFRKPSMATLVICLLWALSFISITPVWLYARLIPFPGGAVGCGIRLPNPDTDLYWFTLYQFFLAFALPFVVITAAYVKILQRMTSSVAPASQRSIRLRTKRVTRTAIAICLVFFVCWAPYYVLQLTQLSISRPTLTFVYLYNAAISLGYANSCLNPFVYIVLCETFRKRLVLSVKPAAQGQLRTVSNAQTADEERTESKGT
# T2 sequence (P97639 whole entry): as above
# T1 sequence (Q99705 whole entry): as the sequence (Q99705 whole entry) above
IC50 ([1]; threshold 100 μM or less) [µM],IC50 ([2]; threshold 100 μM or less) [µM],IC50 ([1]; threshold 100 nM or less) [µM],Ki (rat MCH1 receptor; threshold 100 nM or less) [µM],Ki (rat MCH1 receptor; threshold 100 μM or less) [µM],IC50 ([2]; threshold 100 nM or less) [µM],Ki (human MCH receptor) [µM],Compound
≤ 100,≤ 100,–,–,–,–,–,"CCNC(=O)Nc1cc(C(=O)NCCN2CCCC2)ccc1Oc1ccc(C)c(C)c1 [Compound 18, 4-(3,4-dimethylphenoxy)-3-(3-ethylureido)-N-(2-pyrrolidin-1-yl-ethyl)benzamide]"
≤ 100,≤ 100,≤ 0.1,≤ 0.1,≤ 100,≤ 0.1,–,"Cc1ccc(Oc2ccc(C(=O)NCCN3CCCC3)cc2NC(=O)Nc2ccc(Cl)cc2Cl)cc1C [Compound 31, 3-[3-(2,4-dichlorophenyl)ureido]-4-(3,4-dimethylphenoxy)-N-(2-pyrrolidin-1-yl-ethyl)benzamide]"
≤ 100,≤ 100,–,–,–,–,–,"CC(=O)Nc1cc(C(=O)NCCN2CCCC2)ccc1Oc1ccc(C)c(C)c1 [Compound 10, 3-acetylamino-4-(3,4-dimethylphenoxy)-N-(2-pyrrolidin-1-yl-ethyl)benzamide]"
–,≤ 100,–,–,≤ 100,≤ 0.1,≤ 100,"O=C(Nc1cccc(F)c1)Nc1cc(C(=O)NCCN2CCCC2)ccc1Oc1cccc(F)c1 [Compound 55, 4-(3-fluorophenoxy)-3-[3-(3-fluorophenyl)ureido]-N-(2-pyrrolidin-1-yl-ethyl)benzamide]"
–,≤ 100,–,–,–,≤ 0.1,≤ 100,"O=C(Nc1cccc(F)c1)Nc1cc(C(=O)NCCN2CCCC2)ccc1Oc1ccc(Cl)c(Cl)c1 [Compound 52, 4-(3,4-dichlorophenoxy)-3-[3-(3-fluorophenyl)ureido]-N-(2-pyrrolidin-1-yl-ethyl)benzamide]"
≤ 100,≤ 100,–,–,≤ 100,–,–,"COc1ccccc1NC(=O)Nc1cc(C(=O)NCCN2CCCC2)ccc1Oc1ccc(C)c(C)c1 [Compound 30, 4-(3,4-dimethylphenoxy)-3-[3-(2-methoxyphenyl)ureido]-N-(2-pyrroliidin-1-yl-ethyl)benzamide]"
–,≤ 100,–,–,–,≤ 0.1,–,"O=C(Nc1cccc(F)c1)Nc1cc(C(=O)NCCN2CCCC2)ccc1Oc1ccccc1 [Compound 61, 3-[3-(3-fluorophenyl)ureido]-4-phenoxy-N-(2-pyrrolidin-1-yl-ethyl)benzamide]"
≤ 100,≤ 100,–,–,–,–,–,"Cc1ccc(Oc2ccc(C(=O)NCCN3CCCC3)cc2NC(=O)CCC2CCCC2)cc1C [Compound 12, 3-(3-cyclopentylpropionylamino)-4-(3,4-dimethylphenoxy)-N-(2-pyrrolidin-1-yl-ethyl)benzamide]"
≤ 100,–,–,–,–,–,–,"O=C(NCCN1CCCC1)c1ccc(Oc2ccccc2)cc1 [Compound 8, 4-(phenyloxy)-N-(2-(1-pyrrolidinyl)ethyl)benzamide]"
≤ 100,–,–,–,–,–,–,"Cc1ccc(Oc2ccc(C(=O)NCCN)cc2NC(=O)CCc2ccccc2)cc1C [Compound 20, N-(2-aminoethyl)-4-(3,4-dimethylphenoxy)-3-(3-phenylpropionylamino)benzamide]"
≤ 100,≤ 100,–,–,–,–,–,"Cc1ccc(Oc2ccc(C(=O)NCCN3CCCC3)cc2NC(=O)Cc2ccccc2)cc1C [Compound 13, 4-(3,4-dimethylphenoxy)-3-phenylacetylarnino-N-(2-pyrrolidin-1-yl-ethyl)benzamide]"
≤ 100,≤ 100,≤ 0.1,≤ 0.1,≤ 100,≤ 0.1,–,"Cc1ccc(Oc2ccc(C(=O)NCCN3CCCC3)cc2NC(=O)Nc2cccc(F)c2)cc1C [Compound 39, 4-(3,4-dimethylphenoxy)-3-[3-(3-fluorophenyl)ureido]-N-(2-pyrrolidin-1-yl-ethyl)benzamide]"
≤ 100,≤ 100,≤ 0.1,–,–,≤ 0.1,–,"O=C(Nc1cc(F)cc(F)c1)Nc1cc(C(=O)NCCN2CCCC2)ccc1Oc1ccc(Cl)c(Cl)c1 [Compound 66, 4-(3,4-dichlorophenoxy)-3-[3-(3,5-difluorophenyl)ureido]-N-(2-pyrrolidin-1-yl-ethyl)benzamide]"
≤ 100,≤ 100,≤ 0.1,≤ 0.1,≤ 100,–,–,"Cc1ccc(Oc2ccc(C(=O)NCCN3CCCC3)cc2NC(=O)Nc2ccc(Oc3ccccc3)cc2)cc1C [Compound 32, 4-(3,4-dimethylphenoxy)-3-[3-(4-phenoxyphenyl)ureido]-N-(2-pyrrolidin-1-yl-ethyl)benzamide]"
–,–,–,–,≤ 100,–,–,O=C(CCc1ccccc1)Nc1cc(C(=O)NCCN2CCCC2)ccc1Oc1ccc2ccccc2c1 [Compound 22]
≤ 100,≤ 100,–,–,–,–,–,"Cc1ccc(Oc2ccc(C(=O)NCCN3CCCC3)cc2NC(=O)N(C)c2ccccc2)cc1C [Compound 43, 4-(3,4-dimethylphenoxy)-3-(3-methyl-3-phenylureido)-N-(2-pyrrolidin-1-yl-ethyl)benzamide]"
≤ 100,≤ 100,–,≤ 0.1,≤ 100,–,–,"Cc1ccc(Oc2ccc(C(=O)NCCN3CCCC3)cc2NC(=O)/C=C/c2ccccc2)cc1C [Compound 15, 4-(3,4-dimethylphenoxy)-3-(3-phenyl-acryloylamino)-N-(2-pyrrolidin-1-yl-ethyl)benzamide]"
≤ 100,≤ 100,–,–,–,–,–,"Cc1ccc(Oc2ccc(C(=O)NCCN3CCCC3)cc2NC(=O)c2ccc3ccccc3c2)cc1C [Compound 17, naphthalene-2-carboxylic acid [2-(3,4-dimethylphenoxy)-5-(2-pyrrolidin-1-yl-ethylcarbamoyl)phenyl]amide]"
≤ 100,≤ 100,≤ 0.1,–,≤ 100,–,–,Cc1ccc(Oc2ccc(C(=O)NCCN3CCCC3)cc2NC(=O)Nc2ccc(-c3ccccc3)cc2)cc1C [Compound 33]
≤ 100,≤ 100,–,–,–,–,–,"Cc1ccc(Oc2ccc(C(=O)NCCN3CCCC3)cc2NC(=O)[C@@H]2C[C@H]2c2ccccc2)cc1C (stereo in doubt) [Compound 16, 4-(3,4-dimethylphenoxy)-3-[(2-phenyl-cyclopropanecarbonyl)amino]-N-(2-pyrrolidin-1-yl-ethyl)benzamide]"
≤ 100,≤ 100,–,–,–,–,–,"Cc1ccc(Oc2ccc(C(=O)NCCN3CCCC3)cc2NC(=O)N(c2ccccc2)c2ccccc2)cc1C [Compound 42, 4-(3,4-dimethylphenoxy)-3-(3,3-diphenylureido)-N-(2-pyrrolidin-1-yl-ethyl)benzamide]"
